Here are results for 17 compounds from patent publication US20250376472A1, “3-(PHENYLSULFONYL)-[1,2,3]TRIAZOLO[1,5A]QUINAZOLIN-5(4H)-ONE DERIVATIVES” (priority 2022, published 2025).

Experiment [1] has as its target T1, AgrA (Staphylococcus aureus, UniProt P0A0I7).
T1 construct: endogenous in cells; host or cells: S. aureus USA300 strain UAMS-1625 carrying a P3-lacZ reporter plasmid
The experiment in a line: cell-based. To be noted: for Ratio IC50 (in presence of HSA)/IC50 (in absence of HSA): 40 mg/mL HSA versus no HSA. On the set-up: species or system S. aureus.

The target of experiment [2] is T1, AgrA. The settings on record: all four agr groups; cited from earlier work.
A further experiment concerns MRSA USA300 type strain. The settings on record: mice infected with MRSA USA300 type strain, applied multiple times; cited from earlier work.
The subject of experiment [3] is S. aureus. To be noted: after multiple passages with Savirin; cited from earlier work.
The subject of experiment [4] is S. aureus. The settings on record: cited from earlier work.
For the next experiment, the system named is red blood cell (RBC). To be noted: cited from earlier work.
Where [5] appears, read: IC50 at 40 mg/mL HSA, LB medium supplemented with human serum albumin 40 mg/mL.
Setting [6] is: IC50 without HSA, LB medium, no human serum albumin, 18 hours incubation.
Where [7] appears, read: LB medium supplemented with human serum albumin 40 mg/mL.
Where [8] appears, read: LB medium, no human serum albumin, 18 hours incubation.

T1 sequence (P0A0I7 whole entry): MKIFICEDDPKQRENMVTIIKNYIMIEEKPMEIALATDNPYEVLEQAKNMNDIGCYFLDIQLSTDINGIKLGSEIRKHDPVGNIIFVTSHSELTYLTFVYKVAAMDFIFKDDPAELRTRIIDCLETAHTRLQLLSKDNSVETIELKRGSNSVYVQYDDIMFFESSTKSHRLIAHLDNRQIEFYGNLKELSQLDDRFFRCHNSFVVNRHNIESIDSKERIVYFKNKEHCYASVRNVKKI

As for `Cc1ccc(S(=O)(=O)c2nnn3c2[nH]c(=O)c2ccc(N4CCN(CC(=O)NC5CCNCC5)CC4)cc23)c(C)c1` [Compound 140], the IC50 (in general, the midpoint of a concentration-inhibition curve) lay within 17.3 to 86.4 µM at AgrA [1] (setting [5]) and 1.73 to 8.64 µM at AgrA [1] (setting [6]).
For `Cc1ccc(S(=O)(=O)c2nnn3c2[nH]c(=O)c2ccc(N4CCN(CC(=O)N5CCC(N)CC5)CC4)cc23)c(C)c1` [Compound 141] the same measures were less than 17.3 µM and 1.73 to 8.64 µM.
For the compound `Cc1ccc(S(=O)(=O)c2nnn3c2[nH]c(=O)c2ccc(N4CCN(CC(=O)NC5CCCNC5)CC4)cc23)c(C)c1` (centres unmarked) [Compound 142], the IC50 against AgrA [1] (setting [5]) was less than 17.3 µM; against AgrA [1] (setting [6]) it was 1.73 to 8.64 µM.
As to `Cc1ccc(S(=O)(=O)c2nnn3c2[nH]c(=O)c2ccc(N4CCN(CC(=O)N5CCCC(N)C5)CC4)cc23)c(C)c1` (centres unmarked) [Compound 143], on AgrA [1], the “Ratio IC50 (in presence of HSA)/IC50 (in absence of HSA)” value (shortened to “Ratio IC50 (in presence of HSA)/IC50”) is “+++ (+++: ratio ≤ 25)”. Besides, the “IC50 at 40 mg/mL HSA” value against AgrA [1] (setting [7]) was “+++ (+++: IC50 ≤ 10 μg/mL)”. In addition, the “IC50 without HSA” value against AgrA [1] (setting [8]) is listed as “++ (++: 1 μg/mL < IC50 ≤ 5 μg/mL)”.
For the compound `Cc1ccc(S(=O)(=O)c2nnn3c2[nH]c(=O)c2ccc(N4CCN(CC(=O)N5CCCC(CN)C5)CC4)cc23)c(C)c1` (centres unmarked) [Compound 144], the IC50 against AgrA [1] (setting [5]) is less than 16.9 µM; against AgrA [1] (setting [6]), 1.69 to 8.44 µM.
For `Cc1ccc(S(=O)(=O)c2nnn3c2[nH]c(=O)c2ccc(N4CCN(CC(=O)N5CCCCC5CN)CC4)cc23)c(C)c1` (centres unmarked) [Compound 145] the same measures were 16.9 to 84.4 µM and 1.69 to 8.44 µM.
As to `Cc1ccc(S(=O)(=O)c2nnn3c2[nH]c(=O)c2ccc(N4CCN(CC(=O)N5CCCC(CCN)C5)CC4)cc23)c(C)c1` (centres unmarked) [Compound 146], the “Ratio IC50 (in presence of HSA)/IC50” value at AgrA [1] is “+++ (+++: ratio ≤ 25)”. The “IC50 at 40 mg/mL HSA” value at AgrA [1] (setting [7]) was “+++ (+++: IC50 ≤ 10 μg/mL)”. Further, the “IC50 without HSA” value against AgrA [1] (setting [8]) is given as “++ (++: 1 μg/mL < IC50 ≤ 5 μg/mL)”.
With `Cc1ccc(S(=O)(=O)c2nnn3c2[nH]c(=O)c2ccc(N4CCN(CC(=O)N5CCC(CN)CC5)CC4)cc23)c(C)c1` [Compound 147], the IC50 fell in the range of 16.9 to 84.4 µM against AgrA [1] (setting [5]) and 1.69 to 8.44 µM against AgrA [1] (setting [6]).
`Cc1ccc(S(=O)(=O)c2nnn3c2[nH]c(=O)c2ccc(N4CCN(CC(=O)N5C[C@H]6CNC[C@H]6C5)CC4)cc23)c(C)c1` [Compound 153]: the IC50 at AgrA [1] (setting [5]) lay within 16.9 to 84.6 µM; against AgrA [1] (setting [6]), 1.69 to 8.46 µM.
The corresponding values for `Cc1ccc(S(=O)(=O)c2nnn3c2[nH]c(=O)c2ccc(N4CCCN(CC(=O)N5CCNCC5)CC4)cc23)c(C)c1` [Compound 161] are less than 17.3 µM and 1.73 to 8.64 µM.
As for `Cc1ccc(S(=O)(=O)c2nnn3c2[nH]c(=O)c2ccc(N4CCCN(CCC(=O)N5CCCC5)CC4)cc23)c(C)c1` [Compound 163], the IC50 against AgrA [1] (setting [5]) was less than 17.3 µM; on AgrA [1] (setting [6]), 1.73 to 8.65 µM.
The corresponding values for `O=C(CN1CCN(c2ccc3c(=O)[nH]c4c(S(=O)(=O)c5ccc(C(F)(F)F)cc5)nnn4c3c2)CC1)N1CCCC1` [Compound 164] are 17 to 84.8 µM and 1.7 to 8.48 µM.
Take `CC(C)c1ccc(S(=O)(=O)c2nnn3c2[nH]c(=O)c2ccc(N4CCN(CC(=O)N5CCCC5)CC4)cc23)cc1` [Compound 166]: the “Ratio IC50 (in presence of HSA)/IC50” value on AgrA [1] is listed as “++ (++: 25 < ratio ≤ 125)”. Besides, at AgrA [1] (setting [7]), the half-inhibitory concentration (IC50) at 40 mg/mL HSA was “++ (++: 10 μg/mL < IC50 ≤ 50 μg/mL)”. Also, the “IC50 without HSA” value at AgrA [1] (setting [8]) is “+++ (+++: IC50 ≤ 1 μg/mL)”.
The corresponding values for `Cc1ccc(S(=O)(=O)c2nnn3c2[nH]c(=O)c2ccc(N4CCCN(CCC(=O)N5CCOCC5)CC4)cc23)c(C)c1` [Compound 168] are “+++ (+++: ratio ≤ 25)”, “+++ (+++: IC50 ≤ 10 μg/mL)” and “++ (++: 1 μg/mL < IC50 ≤ 5 μg/mL)”.
With `O=C(CN1CCN(c2ccc3c(=O)[nH]c4c(S(=O)(=O)c5ccc(C(F)(F)F)cc5)nnn4c3c2)CC1)N1CCOCC1` [Compound 169], the IC50 against AgrA [1] (setting [5]) was 16.5 to 82.6 µM; on AgrA [1] (setting [6]), 1.65 to 8.26 µM.
In the case of `Cc1ccc(S(=O)(=O)c2nnn3c2[nH]c(=O)c2ccc(N4CCN(CC(=O)NCCc5ccncc5)CC4)cc23)c(C)c1` [Compound 175], the IC50 was 16.6 to 83.2 µM on AgrA [1] (setting [5]) and less than 1.66 µM at AgrA [1] (setting [6]).
For `CC(C)c1ccc(S(=O)(=O)c2nnn3c2nc(O)c2ccccc23)cc1` [Savirin], the “modulation of AgrA-regulated toxin gene transcription (hla, psma, pvl)” value at AgrA [2] is given as “potent modulator”. Besides, in the experiment with MRSA USA300 type strain, the “abscess size and dermonecrosis” value is reported as “significant reduction”. Besides, in the experiment on S. aureus [3], the resistance development result is listed as “No resistance was developed”. In the experiment with S. aureus [4], the “viability of S. aureus” value was “without affecting viability”. In addition, the “exotoxin-induced red blood cell (RBC) lysis” value with red blood cell (RBC) is reported as “inhibited”.
